Assay results from patent US8703825B2, “Compounds, use thereof as medicaments, and method of preparation thereof” (Universite de Lorraine, priority 2008, dated 2014).
In brackets after ≈: the same amount, converted by molar mass. Like-named read-outs stand apart in the source and are kept apart here.

Assays:
Format in all cases: cell-based
[1] = in vitro; conditions: human
From the text: The eukaryotic cells used in our study are HaCaT cells (human keratinocytes), which were kindly supplied by the Pierre Fabre Institute (Toulouse, France); and MRC-5 cells (human embryonic fibroblasts), which were obtained from the company BioMérieux (Lyons, France). These cells are cultivated in DMEM (“Dulbecco's modified Eagle's medium”, Invitrogen 61965) for the HaCaT cells, and MEM (“modified Eagle's medium”, Invitrogen 41090); 10% of fetal calf serum (FCS, Invitrogen, 10270, Batch 40Q5150K) in a humid chamber at 37° C., under 5% CO2. The HaCaT and MRC-5 cells were seeded at 10^4 cells/well in 96-well plates (Sarstedt 831835). After 48 h of growth, the culture medium is withdrawn and replaced with the various “test” solutions (volume=100 μL). After contact time of 24, 48 and/or 168 H,the viability or cytotoxicity tests are carried out.
b) Cytotoxicity Tests (Neutral Red Test)
The cytotoxicity test is based on incorporation of a vital dye, Neutral Red, in the lysosomes of the viable cells, after exposure of the cells to different concentrations of the test molecules. The quantity of dye, after extraction from the lysosomes, is quantified by means of a spectrophotometer and compared with that obtained in the case of “control” cells, not exposed to the test molecules.
The test was carried out as described previously [Borenfreund E, Puerner J A. Toxicity determined in vitro by morphological alterations and neutral red absorption. Toxicol Lett 1985; 24: 119-24, and Grare M, Mourer M, Fontanay S, Regnouf-de-Vains J B, Finance C, Duval R E. In vitro activity of para-guanidinoethylcalix[4]arene against susceptible and antibiotic-resistant Gram-negative and Gram-positive bacteria. J Antimicrob Chemother. 2007; 60: 575-81].
After contact times of 24, 48 and/or 168 h with the different concentrations of the test molecules, the medium contained in each well is withdrawn and replaced with 200 μL of medium without phenol red (Invitrogen, 51200) containing 50 μg/mL of Neutral Red for an additional 3 h of incubation. The cells are then rinsed 3 times with PBS solution. After the last washing with PBS, 200 μL of a solution with 1% acetic acid/50% ethanol is added to each well to extract the dye from the lysosomes of the viable cells. The absorbance is measured at 540 nm, with a reference wavelength at 690 nm, by means of an ELISA plate reader (Multiskan E X, Thermo Electron Corporation, France). The results are the mean of the values obtained for 8 wells per concentration and per unit time. Each experiment was carried out 3 times.

[2] = tested on: P. aeruginosa overexpressing an efflux pump (PaR1); assay: MIC by microdilution, clinical isolate; conditions: Pseudomonas aeruginosa
Procedure: (§1) The study also included 5 clinical isolates, obtained from rectal samples and/or from haemoculture: • […] E. coli (EcR1), • methicillin-resistant S. aureus (mecA gene) (SaR1), • vancomycin-resistant E. faecium (vanB gene) (EfR1), • E. faecalis resistant to teicoplanin and to vancomycin (vanA gene) (EfR2), and • P. aeruginosa overexpressing an efflux pump (PaRl).
(§2) The isolates were selected on the basis of their resistance profile. The resistance profiles were determined on VITEK2 (BioMérieux, France).
(§3) The bacteria are cultivated either on Mueller-Hinton agar (Difco, 225250), or in Mueller-Hinton broth (Difco, 275730), at 35° C. [Grare M, Mourer M, Fontanay S, Regnouf-de-Vains J B, Finance C, Duval R E. In vitro activity of para-guanidinoethylcalix[4]arene against susceptible and antibiotic-resistant Gram-negative and Gram-positive bacteria. J. Antimicrob Chemother. 2007; 60: 575-81].
(§4) The various molecules tested were prepared in the form of aqueous solution at 10^−2 mol/L. The solutions used for the biological tests are freshly prepared, and stored for a week at most, at 4° C. The solutions are filtered through a filter with pores of 0.22 μm (Millex®GP; 0.22 μm; Millipore; France) before each test.
(§5) Procedure for determining the Minimum Inhibitory Concentration (MIC)
(§6) The minimum inhibitory concentrations (MIC) were determined by the standardized method of microdilution in liquid medium (96-well microplate, U-shaped bottom, Greiner), in Mueller-Hinton broth, with a final inoculum of 10^5-10^6 CFU/mL, depending on the bacterial species, in accordance with the recommendations of the CLSI.
(§7) For the determination of MIC, bacterial suspensions are prepared from an isolated colony, taken from a Mueller-Hinton agar, taken up in 5 mL of Mueller-Hinton broth. After 24 h of growth, the bacterial suspensions are diluted in sterile distilled water in order to obtain an inoculum of 10^5-10^6 CFU/mL. The purity of the bacterial suspensions is tested by isolation on agar and Gram staining.
(§8) The results are the mean value of 4 independent experiments.

[3] = tested on: E. faecalis resistant to teicoplanin and to vancomycin (vanA gene) (EfR2); assay: MIC by microdilution, clinical isolate; conditions: Enterococcus faecalis
Procedure: as §1, §2, §3, §4, §5, §6, §7, §8

[4] = tested on: Enterococcus faecalis ATCC 29212; assay: MIC by microdilution in liquid medium (CLSI / CA-SFM)
From the text: (§9) According to the joint recommendations: • of the “Comite de l′Antibiogramme de la Société Française de Microbiologie” (Antibiogram Committee of the French Society of Microbiology) (CA-SFM) [CA-SFM. Communique 2007 (Edition of January 2007). http://www.sfm.asso.fr] and, • of the “Clinical and Laboratory Standards Institute” (CLSI, formerly “National Committee for Clinical Laboratory Standards” or NCCLS) [NCCLS. 2003. Methods for dilution antimicrobial susceptibility tests for bacteria that grow aerobically; approved standard M7-A6, 6th ed. National Committee for Clinical Laboratory Standards, Wayne, Pa., USA.], five reference bacterial strains were used for the study: Escherichia coli ATCC 25922, Pseudomonas aeruginosa ATCC 27853, Staphylococcus aureus ATCC 25923 & ATCC 29213 and Enterococcus faecalis ATCC 29212.
as §3, §4, §5, §6, §7, §8

[5] = tested on: Pseudomonas aeruginosa ATCC 27853; assay: as above
From the text: as §9, §3, §4, §5, §6, §7, §8

[6] = tested on: Staphylococcus aureus ATCC 25923; assay: as above; conditions: Staphylococcus aureus
From the text: as §9, §3, §4, §5, §6, §7, §8

[7] = tested on: Escherichia coli ATCC 25922; assay: as above; conditions: Escherichia coli
From the text: as §9, §3, §4, §5, §6, §7, §8

[8] = tested on: Staphylococcus aureus ATCC 29213; assay: as above; conditions: for Selectivity index (SI=IC50/MIC): S. aureus ATCC 29213, HaCaT cell lines, 24 h exposure; for MIC: Staphylococcus aureus
From the text: as §9, §3, §4, §5, §6, §7, §8

[9] = tested on: Staphylococcus aureus ATCC 25923; assay: as above; conditions: S. aureus ATCC 25923; HaCaT cell lines, 24 h exposure
[10] = tested on: Escherichia coli ATCC 25922; assay: as above; conditions: E. coli ATCC 25922; HaCaT cell lines, 24 h exposure
[11] = clinical isolate, E. faecalis (vanA gene), read-out: MIC
[12] = ATCC29212, E. faecalis ATCC 29212, reference strain, read-out: MIC
[13] = ATCC27853, P. aeruginosa ATCC 27853, reference strain, read-out: MIC
[14] = ATCC25923, S. aureus ATCC 25923, reference strain, read-out: MIC
[15] = ATCC25922, E. coli ATCC 25922, reference strain, read-out: MIC
[16] = ATCC29213, S. aureus ATCC 29213, reference strain, read-out: MIC

| Compound | CC50 at 24 h [1] | MIC [2] | MIC [3, 11] | MIC [4, 12] | MIC [5, 13] | MIC [6, 14] | MIC [7, 15] | Selectivity index (SI=IC50/MIC) [8] | MIC [8, 16] | Selectivity index (SI=IC50/MIC) [9] | Selectivity index (SI=IC50/MIC) [10] | CC50 at 48 h [1] | MIC [3] | MIC ([4]; ATCC29212) | MIC ([5]; ATCC27853) | MIC ([6]; ATCC25923) | MIC ([7]; ATCC25922) | MIC ([8]; ATCC29213) |
| --- | --- | --- | --- | --- | --- | --- | --- | --- | --- | --- | --- | --- | --- | --- | --- | --- | --- | --- |
| [H]/N=C(\N/C(=N/[H])NCCCCCCNC(=N)NC(=N)Nc1ccc(Cl)cc1)Nc1ccc(Cl)cc1 [CHX, chlorhexidine] | 8 to 16 µg/mL (≈ 15.8 to 31.7 µM) | 8 µg/mL (≈ 15.8 µM) | 2 µg/mL (≈ 3.96 µM) | 2 µg/mL (≈ 3.96 µM) | 8 µg/mL (≈ 15.8 µM) | 0.5 µg/mL (≈ 0.989 µM) | 0.25 µg/mL (≈ 0.495 µM) | 32-64 | 0.5 µg/mL (≈ 0.989 µM) | 32-64 | 64-128 | – | – | – | – | – | – | – |
| N=C(N)c1ccc(OCCCCCCOc2ccc(C(=N)N)cc2)cc1 [HX, hexamidine] | 8 to 16 µg/mL (≈ 22.6 to 45.1 µM) | 64 µg/mL (≈ 181 µM) | – | – | – | – | – | ≧32 | – | 8-16 | 4-8 | 8 to 16 µg/mL (≈ 22.6 to 45.1 µM) | 4 µg/mL (≈ 11.3 µM) | 2 µg/mL (≈ 5.64 µM) | 32 µg/mL (≈ 90.3 µM) | 4 µg/mL (≈ 11.3 µM) | 8 µg/mL (≈ 22.6 µM) | < 1 µg/mL |
| N=C(N)NCCc1ccc(OCCCCCCOc2ccc(CCNC(=N)N)cc2)cc1 [compound 6, 1,6-bis(4-(2-guanidinoethyl)phenoxy)hexane] | 4 to 8 µg/mL (≈ 9.08 to 18.2 µM) | 32 µg/mL (≈ 72.6 µM) | 16 µg/mL (≈ 36.3 µM) | 8 µg/mL (≈ 18.2 µM) | 16 µg/mL (≈ 36.3 µM) | 0.5 µg/mL (≈ 1.13 µM) | 4 µg/mL (≈ 9.08 µM) | 16-32 | 0.25 µg/mL (≈ 0.567 µM) | 8-16 | 1-2 | – | – | – | – | – | – | – |
